Assay results as given in patent US9073892B2, “Indazolyl triazol derivatives” (Merck Serono S.A., priority 2010, dated 2015).
Where a name gives a salt, the structure may show the parent alone.

How the values were obtained:
IRAK1/4 human = test system: T1, IRAK1/4 human; assay: IRAK1/4 phosphorylation IC50 (enzymatic assay, table 2); assay type: biochemical; conditions: human IRAK1/4 phosphorylation
T1 construct: fused on or other part: His tag and TEV cleavage site at the N-terminus
In short: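 Compounds in DMSO, from 20 µM down to 1 nM, were incubated with ATP and His-TEV-tagged human IRAK-1 or IRAK-4 in 384-well plates, with STK1-biotin peptide added for IRAK-4. The 2 or 3 hour reactions used Hepes pH7.0 50 mM with MgCl2, DTT, EGTA and BSA. The values report inhibition as IC50.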

LPS-induced IL-6 release = assay: LPS-induced cytokine release in mice (IL-6); assay type: in vivo; conditions: female C57B6 mice; for inhibition of LPS-induced IL-6 release in mice: 30 min before LPS 1 mg/kg i.p., serum 2 hours after LPS
Experimental: (§1) LPS-Induced Cytokine Release in Mice
(§2) Female C57B6 mice (8-10 weeks 4-6 mice/group) were dosed p.o. with vehicle (40% Kleptose in water), reference compound dexamethasone (1 mg/kg) or three different doses of compound 1 (10, 30 and 60 mg/kg at 10 mL/kg). 30 minutes after compound administrations mice were injected i.p. with LPS (0111:B4, 1 mg/kg). 2 hours after LPS injection mice were sacrificed. Serum was collected; cytokine levels (TNF-α and IL-6) were detected by ELISA or OBA.

LPS-induced TNFα release = assay: LPS-induced cytokine release in mice (TNFα); assay type: in vivo; conditions: female C57B6 mice; for inhibition of LPS-induced TNFα release in mice: 30 min before LPS 1 mg/kg i.p., serum 2 hours after LPS
Experimental: as §1, §2

[1] = test system: IL1β-induced IL8 release in THP1 cells; assay: IRAK IL8 secretion functional assay; assay type: cell-based; conditions: Homo sapiens; THP-1 cells, IL1β 100 ng/ml overnight, IL8 by HTRF; read-out: IC50, Secretion THP-1/IL-β induced IL8 release
In short: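 THP-1 cells (30,000/well, RPMI 1640) were incubated overnight at 37 °C, 5% CO2 with compound (20 μM to 1 nM) plus IL1β at 100 ng/ml final. IL-8 in the supernatant was measured by HTRF with europium cryptate- and XL665-labelled anti-IL8 antibodies, read after 3 h at 30 °C.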

[2] = test system: IL-6 secretion in human PBMC; assay: IRAK IL-6 secretion functional assay in human PBMC; assay type: cell-based; conditions: preincubated 1 h with test article, stimulated with 10 ng/ml IL1, 18-20 h, ELISA
Experimental: IRAK IL-6 Secretion Functional Assay in Human PBMC
Human PBMCs from healthy volunteers were purified from buffy coats of heparinized whole blood by density centrifugation on Ficoll-Hypaque. Isolated PBMCs were washed twice in PBS, counted, and seeded at a density of 7×10^4 cells/well in 180 µl of complete RPMI 1640 medium containing 10% heat-inactivated FBS. PBMC were preincubated for 1 h with serial dilutions of test article dissolved in DMSO (final DMSO concentration 0.33%) at 37° C. in a 5% CO2 incubator. PBMC were then stimulated with 10 ng/ml of IL1-(final volume […]) and incubation was continued for 18-20 h. The supernatants were collected and IL-6 was quantified using the Duo-set ELISA kit (R&D Systems) following manufacturer's instructions

Compound | IC50 (IRAK1/4 human) [nM] | IC50 [1] [nM] | IC50 [2] [nM] | further results
O=C(c1ccc(-n2cc(-c3n[nH]c4ccccc34)nn2)cc1)N1CCOCC1 [Example 1, 3-{1-[4-(morpholin-4-ylcarbonyl)phenyl]-1H-1,2,3-triazol-4-yl}-1H-indazole] | 100 to 1000 | 100 to 1000 | 200 to 2000 | LPS-induced IL-6 release in mice (result in words) (LPS-induced IL-6 release; 10, 30 and 60 mg/kg p.o.): inhibits dose dependently; inhibition of LPS-induced IL-6 release in mice (LPS-induced IL-6 release; 10 mpk po): 9% INH; inhibition of LPS-induced IL-6 release in mice (LPS-induced IL-6 release; 30 mpk po): 25% INH; inhibition of LPS-induced IL-6 release in mice (LPS-induced IL-6 release; 60 mpk po): 66% INH; LPS-induced TNFα release in mice (result in words) (LPS-induced TNFα release; 10, 30 and 60 mg/kg p.o.): inhibits dose dependently; inhibition of LPS-induced TNFα release in mice (LPS-induced TNFα release; 10 mpk po): 36% INH; inhibition of LPS-induced TNFα release in mice (LPS-induced TNFα release; 30 mpk po): 43% INH; inhibition of LPS-induced TNFα release in mice (LPS-induced TNFα release; 60 mpk po): 61% INH
C[C@@H]1C[C@H]2[C@@H]3CCC4=CC(=O)C=C[C@]4(C)[C@@]3(F)[C@@H](O)C[C@]2(C)[C@@]1(O)C(=O)CO [dexamethasone, reference compound] | – | – | – | inhibition of LPS-induced IL-6 release in mice (LPS-induced IL-6 release; 1 mpk po): 83% INH; inhibition of LPS-induced TNFα release in mice (LPS-induced TNFα release; 1 mpk po): 97% INH
O=C(c1ccc(-n2cc(-c3n[nH]c4ccccc34)nn2)cc1)N1CCCC(CN2CCCC2)C1 (centres unmarked) [Example 2, 3-[1-(4-{[3-(pyrrolidin-1-ylmethyl)piperidin-1-yl]carbonyl}phenyl)-1H-1,2,3-triazol-4-yl]-1H-indazole] | < 100 | < 100 | 200 to 2000 | –
O=C(c1ccc(-n2cc(-c3n[nH]c4ccccc34)nn2)cc1)N1CCCC(O)C1 (centres unmarked) [Example 30] | 100 to 1000 | 100 to 1000 | 200 to 2000 | –
CN1C2CCC1CC(n1cc(NC(=O)c3ccc(-n4cc(-c5n[nH]c6ccccc56)nn4)cc3)cn1)C2 (centres unmarked) [Example 125, 4-[4-(1H-indazol-3-yl)-1H-1,2,3-triazol-1-yl]-N-[1-(8-methyl-8-azabicyclo[3.2.1]oct-3-yl)-1H-pyrazol-4-yl]benzamide] | < 100 | 100 to 1000 | 200 to 2000 | –
O=C(NC1CCCNC1)c1ccc2[nH]nc(-c3cn(-c4ccc(CN5CCOCC5)cc4)nn3)c2c1 (centres unmarked) [Example 238] | < 100 | – | < 200 | –
O=C(c1ccc(-n2cc(-c3n[nH]c4ccccc34)nn2)cc1)N1CCCC(CO)C1 (centres unmarked) [Example 33] | < 100 | 100 to 1000 | < 200 | –
Cc1ccc2c(-c3cn(-c4cnn(C5CC6CCC(C5)N6C)c4)nn3)n[nH]c2c1 (centres unmarked) [Example 224] | < 100 | – | 200 to 2000 | –
c1ccc2c(-c3cn(-c4ccc(CN5CCOCC5)cc4)nn3)n[nH]c2c1 [Example 188] | 100 to 1000 | – | 200 to 2000 | –
O=c1ccc(-c2cccnc2)nn1Cc1ccc2[nH]nc(-c3cn(-c4ccc(CN5CCOCC5)cc4)nn3)c2c1 [Example 197] | < 100 | – | < 200 | –
CN1[C@@H]2CC[C@H]1C[C@@H](c1ccc(-n3cc(-c4n[nH]c5ccccc45)nn3)cc1)C2 [Example 251] | 100 to 1000 | – | 200 to 2000 | –
Cc1ccc2c(-c3cn(-c4ccc(C5CCNCC5)cc4)nn3)n[nH]c2c1 (as salt: HCl) [Example 265] | – | – | – | melting point: 303 °C

Continued, in another order:

IC50 (IRAK1/4 human) [nM] | IC50 [1] [nM] | Compound | IC50 [2] [nM] | further results
< 100 | 100 to 1000 | CN1CCC(c2ccc3[nH]nc(-c4cn(-c5ccc(C(=O)N6CCOCC6)cc5)nn4)c3c2)CC1 [Example 124, 5-(1-methylpiperidin-4-yl)-3-{1-[4-(morpholin-4-ylcarbonyl)phenyl]-1H-1,2,3-triazol-4-yl}-1H-indazole] | < 200 | –
100 to 1000 | 100 to 1000 | Cc1ccc2[nH]nc(-c3cn(-c4ccc(CN5CCOCC5)cc4)nn3)c2c1 [Example 7, 5-methyl-3-{1-[4-(morpholin-4-ylmethyl)phenyl]-1H-1,2,3-triazol-4-yl}-1H-indazole] | 200 to 2000 | –
100 to 1000 | – | c1ccc2c(-c3cn(-c4ccc(C5CCNCC5)cc4)nn3)n[nH]c2c1 [Example 132, 3-[1-(4-piperidin-4-ylphenyl)-1H-1,2,3-triazol-4-yl]-1H-indazole hydrochloride] | 200 to 2000 | –
< 100 | – | O=C(c1ccc(-n2cc(-c3n[nH]c4ccc(C5CCCNC5)cc34)nn2)cc1)N1CCOCC1 (centres unmarked) [Example 204] | 200 to 2000 | –
100 to 1000 | – | Cc1ccc2c(-c3cn(-c4ccc(C5CCN(C6CCOCC6)CC5)cc4)nn3)n[nH]c2c1 [Example 298] | 200 to 2000 | –
< 100 | – | Cc1ccc2c(-c3cn(-c4ccc(C5CCN(CC(O)C(F)(F)F)CC5)cc4)nn3)n[nH]c2c1 (centres unmarked) [Example 136, 1,1,1-trifluoro-3-(4-{4-[4-(6-methyl-1H-indazol-3-yl)-1H-1,2,3-triazol-1-yl]phenyl}piperidin-1-yl)propan-2-ol] | 200 to 2000 | –
